Here are results for nine compounds from ChEMBL document CHEMBL1201862, “PubChem BioAssay data set” (2004).

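Method: 48-hour compound exposure of cells in 96-well plates, five concentrations, linear interpolation of endpoints. GI50 marks 50% less growth.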 Activity calls are given as the source filed them. No stated cut-off is given here; in the data, active = GI50 up to about 1.1 µM and inactive = higher. A value given as a limit tells only on which side of the number the result lay.

What all share (assay): NCI anticancer screen, dose series, 48 h
The test system of assay [1] is A498.
Assay [2] deals with EKVX.
For assay [3], the system named is HCT-116.
Assay [4] concerns HCT-15.
The test system of assay [5] is HL-60.
The test system of assay [6] is HT-29.
Assay [7] deals with IGROV-1.
For assay [8], the system named is LOX IMVI.
Assay [9] deals with MCF7.
In assay [10] the test system is NCI-H226.
The test system of assay [11] is NCI-H23.
The test system of assay [12] is OVCAR-4.
In assay [13] the test system is OVCAR-5.
For assay [14], the system named is SF-295.
For assay [15], the system named is SF-539.
For assay [16], the system named is SN12C.
In assay [17] the test system is UACC-62.
Assay [18] deals with UO-31.
Assay [19] deals with HCC 2998.
Assay [20] deals with SNB-75.

On to `O=C(O)c1cccc(OCCO)c1`, for which the GI50 was > 100 µM (inactive) in assay [1]; > 100 µM (inactive) in assay [2]; > 100 µM (inactive) in [3]; > 100 µM in assay [4]; > 100 µM (inactive) in assay [5]; > 100 µM (inactive) in assay [6]. The GI50 in [7], in [8], in assay [9], in assay [10], in assay [11] and in assay [12] was > 100 µM (inactive) throughout. Further, the GI50 in assay [13], in [14], in assay [15], in assay [16], in assay [17] and in [18] was > 100 µM (inactive) each time.

Regarding `CC(C)(C)[Si](C)(C)OCCCC#CCO`, the GI50 in assay [1] is > 100 µM (inactive); in assay [2] it was > 100 µM (inactive); in assay [19] it was > 100 µM (inactive); in assay [4] it was > 100 µM; in assay [5], 25.8 µM (inactive); in assay [6], > 100 µM (inactive). Besides, the GI50 in assay [7], in [8], in [11], in assay [12], in assay [13] and in assay [14] was > 100 µM (inactive) in each case. The GI50 in assay [15], in assay [16], in assay [20], in [17] and in assay [18] was > 100 µM (inactive) throughout.

Regarding `COc1ccc(NC(=S)NNC(=O)c2nsc3ccccc23)cc1`, the GI50 in assay [2] was 28.3 µM (inactive); in assay [19] it was 68.2 µM (inactive); in assay [3], 28.4 µM (inactive); in assay [4], 21.8 µM; in assay [5] it was 19.9 µM (inactive); in assay [6] it was 45.9 µM (inactive). Besides, the GI50 in assay [7] is 35.1 µM (inactive); in assay [8] it was 34.4 µM (inactive); in assay [11], 41.8 µM (inactive); in [12] it was 62.2 µM (inactive); in assay [13] it was > 100 µM (inactive); in assay [15], 28.3 µM (inactive). The GI50 in [16] was 31.8 µM (inactive); in assay [20] it was 24.9 µM (inactive); in [17] it was 27.7 µM (inactive); in [18] it was 25.2 µM (inactive).

Regarding `Clc1ccc(C2SCc3nc4ccccc4n32)cc1` (stereo unspecified), the GI50 was 20.9 µM (inactive) in assay [1]; 34.5 µM (inactive) in [2]; 27.4 µM in assay [4]; 5.24 µM (inactive) in [5]; 19.5 µM (inactive) in assay [6]; 14.5 µM (inactive) in assay [7]. Also, the GI50 in [8] is 14.9 µM (inactive); in [10] it was 19.4 µM (inactive); in assay [11] it was 10.9 µM (inactive); in [14], 26.2 µM (inactive); in [15], 22.6 µM (inactive); in [16], 17.1 µM (inactive). Besides, the GI50 in assay [20] is 4.88 µM (inactive); in assay [17], 13.8 µM (inactive); in assay [18] it was 13.5 µM (inactive).

On to `COc1cc2c(oc(=O)c3cc4cc([Si](C)(C)C)oc4c(OC)c32)c2cccc(O)c12`, for which the GI50 in assay [1] was 78.9 µM (inactive); in assay [2], > 100 µM (inactive); in assay [19] it was > 100 µM (inactive); in assay [3] it was > 100 µM (inactive); in assay [4] it was > 100 µM; in assay [5], > 100 µM (inactive). The GI50 in assay [6], in assay [7], in assay [8], in assay [10], in [11] and in [12] was > 100 µM (inactive) each time. The GI50 in assay [13], in assay [14], in [15], in assay [16], in [20] and in assay [17] was > 100 µM (inactive) each time. In addition, the GI50 in assay [18] was > 100 µM (inactive).

With `COc1ccc(C[C@H](N)C(=O)N2C[C@@H](CO)C[C@@H](n3cnc4c(N(C)C)ncnc43)C2)cc1`, the GI50 in assay [2] is > 100 µM (inactive); in assay [3], > 100 µM (inactive); in assay [4], > 100 µM; in assay [5] it was > 100 µM (inactive); in assay [6] it was > 100 µM (inactive); in [7], > 100 µM (inactive). Also, the GI50 in assay [8], in [11], in assay [13], in assay [14], in assay [15] and in [17] was > 100 µM (inactive) in each case. The GI50 in assay [18] was > 100 µM (inactive).

As for `COc1cc(C=O)cc(O)c1O`, the GI50 in assay [2] was > 100 µM (inactive); in assay [19], > 100 µM (inactive); in [3], > 100 µM (inactive); in assay [4], > 100 µM; in assay [5], 46.7 µM (inactive); in assay [6], 8.07 µM (inactive). The GI50 in [7], in assay [8], in assay [10], in assay [11], in assay [14] and in assay [15] was > 100 µM (inactive) in each case. Also, the GI50 in assay [16] was > 100 µM (inactive); in [20], > 100 µM (inactive); in assay [17], 27.4 µM (inactive); in [18], > 100 µM (inactive).

Regarding `Cc1cn(C2CC(O)C(Cn3cc(Cn4nc(Br)c(=O)[nH]c4=O)nn3)O2)c(=O)[nH]c1=O` (stereo unspecified), the GI50 in assay [1] is > 100 µM (inactive); in assay [2], > 100 µM (inactive); in assay [19], > 100 µM (inactive); in assay [3] it was > 100 µM (inactive); in [4], > 100 µM; in [9], > 100 µM (inactive). In addition, the GI50 in [10], in assay [11], in assay [12], in assay [13], in assay [14] and in [15] was > 100 µM (inactive) in each case. For the same compound, the GI50 in assay [16], in assay [20], in assay [17] and in [18] was > 100 µM (inactive) in each case.

With `CSCCC(NOC(=O)Cc1ccccc1)P(=O)(O)c1ccccc1` (stereo unspecified), the GI50 in [19] was > 100 µM (inactive); in [3], > 100 µM (inactive); in assay [4], > 100 µM; in [5] it was > 100 µM (inactive); in assay [6] it was > 100 µM (inactive); in assay [7], > 100 µM (inactive). Besides, the GI50 in [8], in assay [9], in [10], in [11], in [12] and in assay [13] was > 100 µM (inactive) each time. The GI50 in [14], in assay [16], in assay [20] and in assay [18] was > 100 µM (inactive) each time.
